Reference: patent publication US20130244929A1 (priority 2010, published 2013)
Structures can show the parent of a compound that is named as a salt. Where two headings read alike, the source gives them in different places.

Key:
SpsB = molecular target: T1, SpsB (Staphylococcus aureus, UniProt P0A070); assay: Inhibition of SpsB enzyme activity (fluorescence-based assay, bacterial membrane fraction); assay type: biochemical
T1 construct: using a bacterial membrane fraction as a source of SpsB; from tissue
T1 sequence (P0A070 1-191): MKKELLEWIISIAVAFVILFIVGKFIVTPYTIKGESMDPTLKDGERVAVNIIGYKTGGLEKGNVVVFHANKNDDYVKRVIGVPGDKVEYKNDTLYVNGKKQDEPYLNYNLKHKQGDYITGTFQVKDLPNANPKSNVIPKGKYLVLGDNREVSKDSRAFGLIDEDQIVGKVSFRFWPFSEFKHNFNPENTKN
Description: Signal peptidase enzyme activity was measured in a fluorescence-based assay using a bacterial membrane fraction as a source of SpsB (See Bruton et al., 2003, Eur J Med Chem 38:351-356). The SpsB substrate is a synthetic lipopeptide, decanoyl-K(DABCYL)-TPTAKA↓ASKKD-D(EDANS)—NH2 (prepared by JPT Peptide Technologies, Berlin, Germany). Assays were performed with 20 μM peptide substrate (Km≈5 μM) and reactions were initiated with enzyme addition (final protein concentration of 0.6 mg/mL). SpsB mediated cleavage of the peptide substrate was detected as an increase in fluorescence (excitation 340 nm/emission 460 nm).

[1] = tested on: MB 5393 (COL), a methicillin-resistant S. aureus strain; assay: Determination of minimum and synergistic inhibitory concentration; assay type: cell-based; settings: for SIC: presence of imipenem (4 μg/mL); for MIC: Staphylococcus aureus
Description: MB 5393 (COL), a methicillin-resistant S. aureus strain, was inoculated into Trypticase Soy Broth (TSB, BBL) and grown in a humidified incubator for 18 hours with rotary shaking at 220 rpm and kept on ice until used.
A quantity of imipenem (Merck Chemical Collection) was weighed out and dissolved into sterile 10 mM MOPS buffer at pH 7. This solution was diluted to 1600 μg/mL, 200 μg/mL, and 25 μg/mL and filter-sterilized through a 0.45 μm filter. From these solutions, seven 1:2 serial dilutions were prepared using sterile 10 mM MOPS buffer at pH 7. The final concentration ranges tested were 128 to 2 μg/mL, 16 to […], and 2 to 0.03 μg/mL. The solutions were kept refrigerated until used.
Test compounds (EXAMPLES 1-67) were prepared in sterile water or DMSO at a concentration of 3.2 mg/mL. From this solution, 11 serial 1:2 dilutions were prepared using sterile water. The final concentration range tested was 64 to 0.0313 μg/mL. The solutions were kept refrigerated until used.
Two-fold serial dilutions of test compounds were tested in the presence and absence of subinhibitory concentrations of imipenem (4 μg/mL) in 96-well U bottom microliter dishes in microbiological growth media. The plates were inoculated with bacterial cells to a final concentration of ˜5×10^5 CFU/mL. Test plates were incubated stationery at 37° C. for 22-24 hours.
After 22 hours of incubation, the Minimum inhibitory concentrations (MICs) were determined, defined as the lowest concentration of antibiotic that prevented all visible growth in the absence of imipenem. Synergistic inhibitory concentrations (SICs) were determined, defined as the lowest concentration of antibiotic that prevented all visible growth in the presence of imipenen.

[2] = 20 μM peptide substrate, read-out: SpsB IC50
[3] = MRSA COL, absence of imipenem, 22 hours, read-out: MIC

SMILES | IC50 (SpsB; [2]) [nM] | SIC ([1]; MRSA COL, 22 hours) | MIC [1, 3] [µg/mL] | IC50 (SpsB) [nM] | MIC ([1]; MRSA, 22 h) [µg/mL]
CCCc1ccc(-c2ccc(C(=O)NCCC(=O)N[C@H](CCCCN)C(=O)N(C)[C@@H]3C(=O)N[C@@H](C)C(=O)N[C@H](CO)Cc4ccc(O)c(c4)-c4cc3ccc4O)cc2)cc1.O=C(O)C(F)(F)F (mixture of isomers) [EXAMPLE 5, (5R,S)-6-[[(7S,10S,13S)-3,18-dihydroxy-13-(hydroxymethyl)-10-methyl-8,11-dioxo-9,12-diazatricyclo[13.3.1.1^2,6]icosa-1(19),2(20),3,5,15,17-hexaen-7-yl](methyl)amino]-6-oxo-5-[(3-{[(4′-propylbiphenyl-4-yl)carbonyl]amino}propanoyl)amino]hexan-1-aminium trifluoroacetate] | < 10 | H (H: SIC 0.062-1) | < 1 |  | 
CCCCCCCCCCc1ccc2cc(C(=O)NCCC(=O)N3CCCC3C(=O)N(C)[C@@H]3C(=O)N[C@@H](C)C(=O)N[C@H](C(=O)O)Cc4ccc(O)c(c4)-c4cc3ccc4O)ccc2c1 (stereo in doubt) [EXAMPLE 14, (8S,11S,14S)-3,18-dihydroxy-11-methyl-14-(methyl{[(2R)-1-{3-[(6-decyl-2-naphthoyl)amino]propanoyl}pyrrolidin-2-yl]carbonyl}amino)-10,13-dioxo-9,12-diazatricyclo[13.3.1.1^2,6]icosa-1(19),2(20),3,5,15,17-hexaene-8-carboxylic acid] |  | G (G: SIC <0.0625) | < 1 | < 10 | 
CCCc1ccc(-c2ccc(C(=O)NCCC(=O)NC(CCCCN)C(=O)N(C)[C@@H]3C(=O)N[C@@H](C)C(=O)N[C@H](C(=O)O)Cc4ccc(OC)c(c4)-c4cc3ccc4OC)cc2)cc1.O=C(O)C(F)(F)F (stereo partly drawn) [EXAMPLE 1, 6-[[(7S,10S,13S)-13-carboxy-3,18-dimethoxy-10-methyl-8,11-dioxo-9,12-diazatricyclo[13.3.1.1^2,6]icosa-1(19),2(20),3,5,15,17-hexaen-7-yl](methyl)amino]-6-oxo-5-[(3-{[(4′-propylbiphenyl-4-yl)carbonyl]amino}propanoyl)amino]hexan-1-aminium trifluoroacetate] |  | H (H: SIC 0.062-1) | 1 to 8 | 10 to 50 | 
CCCc1ccc(-c2ccc(C(=O)NCCC(=O)NC(CCCCN)C(=O)N(C)[C@@H]3C(=O)N[C@@H](C)C(=O)N[C@H](C(=O)O)Cc4ccc(O)c(c4)-c4cc3ccc4O)cc2)cc1.O=C(O)C(F)(F)F (stereo partly drawn) [EXAMPLE 2, 5-(R,S)-6-[[(7S,10S,3S)-13-carboxy-3,18-dihydroxy-10-methyl-8,11-dioxo-9,12-diazatricyclo[13.3.1.1^2,6]icosa-1(19),2(20),3,5,15,17-hexaen-7-yl](methyl)amino]-6-oxo-5-[(3-{[(4′-propylbiphenyl-4-yl)carbonyl]amino}propanoyl)amino]hexan-1-aminium trifluoroacetate] |  | H (H: SIC 0.062-1) | 1 to 8 | 10 to 50 | 
CCCc1ccc(-c2ccc(C(=O)NCCC(=O)N[C@H](CCCCN)C(=O)N(C)[C@@H]3C(=O)N[C@@H](C)C(=O)N[C@H](C(=O)O)Cc4ccc(O)c(c4)-c4cc3ccc4O)cc2)cc1.O=C(O)C(F)(F)F [EXAMPLE 4, (5R)-6-[[(7S,10S,13S)-13-carboxy-3,18-dihydroxy-10-methyl-8,11-dioxo-9,12-diazatricyclo[13.3.1.1^2,6]icosa-1(19),2(20),3,5,15,17-hexaen-7-yl](methyl)amino]-6-oxo-5-[(3-{[(4′-propylbipherryl-4-yl)carbonyl]amino}propanoyl)amino]hexan-1-aminium trifluoroacetate] |  | I (I: SIC >1) | > 8 | > 50 | 
CCCc1ccc(-c2ccc(C(=O)NCCC(=O)NC(CCCCN)C(=O)N(C)[C@@H]3C(=O)N[C@@H](C)C(=O)N[C@H](C(N)=O)Cc4ccc(O)c(c4)-c4cc3ccc4O)cc2)cc1.O=C(O)C(F)(F)F (stereo partly drawn) [EXAMPLE 6, trifluoroacetate] |  |  |  | 10 to 50 | 
CCCc1ccc(-c2ccc(C(=O)NCCC(=O)NC(CCCCN)C(=O)N(C)[C@@H]3C(=O)N[C@@H](C)C(=O)N[C@H](C(N)=O)Cc4ccc(O)c(c4)-c4cc3ccc4O)cc2)cc1.O=C(O)C(F)(F)F (stereo partly drawn) [EXAMPLE 6] |  | H (H: SIC 0.062-1) |  |  | < 1
C[C@@H]1NC(=O)[C@@H](N(C)C(=O)C(CCCCN)NC(=O)CCNC(=O)c2ccc(-c3ccc(-c4ccccc4)cc3)cc2)c2ccc(O)c(c2)-c2cc(ccc2O)C[C@@H](C(=O)O)NC1=O.O=C(O)C(F)(F)F (stereo partly drawn) [EXAMPLE 7, 6-[[(7S,10S,13S)-13-carboxy-3,18-dihydroxy-10-methyl-8,11-dioxo-9,12-diazatricyclo[13.3.1.1^2,6]icosa-1(19),2(20),3,5,15,17-hexaen-7-yl](methyl)amino]-6-oxo-5-({3-[(1,1′:4′,1″-terphenyl-4-ylcarbonyl)amino]propanoyl}amino)hexan-1-aminium trifluoroacetate] |  | H (H: SIC 0.062-1) | < 1 | 10 to 50 | 
CCCc1ccc(-c2ccc(C(=O)NCCC(=O)N[C@@H](CCCNC(=N)N)C(=O)N(C)[C@@H]3C(=O)N[C@@H](C)C(=O)N[C@H](C(=O)O)Cc4ccc(O)c(c4)-c4cc3ccc4O)cc2)cc1.O=C(O)C(F)(F)F [EXAMPLE 8, ({(4S)-5-[[(7S,10S,13S)-13-carboxy-3,18-dihydroxy-10-methyl-8,11-dioxo-9,12-diazatricyclo[13.3.1.1^2,6]icosa-1(19),2(20),3,5,15,17-hexaen-7-yl](methyl)amino]-5-oxo-4-[(3-{[(4′-propylbiphenyl-4-yl)carbonyl]amino}propanoyl)amino]pentyl}amino)(imino)methanaminium trifluoroacetate] |  | H (H: SIC 0.062-1) | 1 to 8 | 10 to 50 | 
CCCc1ccc(-c2ccc(C(=O)NCCC(=O)NC(CCCCN)C(=O)N(C)[C@@H]3C(=O)N[C@@H](C)C(=O)N[C@H](C(=O)O)Cc4cccc(c4)-c4cccc3c4)cc2)cc1.O=C(O)C(F)(F)F (stereo partly drawn) [EXAMPLE 9, 6-[[(7S,10S,13S)-13-carboxy-10-methyl-8,11-dioxo-9,12-diazatricyclo[13.3.1.1^2,6]icosa-1(19),2(20),3,5,15,17-hexaen-7-yl](methyl)amino]-6-oxo-5-[(3-{[(4′-propylbiphenyl-4-yl)carbonyl]amino}propanoyl)amino]hexan-1-aminium trifluoroacetate] |  | H (H: SIC 0.062-1) | > 8 | 10 to 50 | 
CCCCc1ccc(C#Cc2ccc(C(=O)NCCC(=O)NC(CCCCN)C(=O)N(C)[C@@H]3C(=O)N[C@@H](C)C(=O)N[C@H](C(=O)O)Cc4ccc(OC)c(c4)-c4cc3ccc4OC)cc2)cc1 (stereo partly drawn) [EXAMPLE 10, 5-{[3-({4-[(4-butylphenyl)ethynyl]benzoyl}amino)propanoyl]amino}-6-[[(7S,10S,13S)-13-carboxy-3,18-dimethoxy-10-methyl-8,11-dioxo-9,12-diazatricyclo[13.3.1.1^2,6]icosa-1(19),2(20),3,5,15,17-hexaen-7-yl](methyl)amino]-6-oxohexart-1-aminium trifluoroacetate] |  | H (H: SIC 0.062-1) | 1 to 8 | < 10 | 
CCCc1ccc(-c2ccc(C(=O)NCCC(=O)N(CCCCN)CC(=O)N(C)[C@@H]3C(=O)N[C@@H](C)C(=O)N[C@H](C(=O)O)Cc4ccc(OC)c(c4)-c4cc3ccc4OC)cc2)cc1.O=C(O)C(F)(F)F [EXAMPLE 11, 4-[{2-[[(7S,10S,13S)-13-carboxy-3,18-dimethoxy-10-methyl-8,11-dioxo-9,12-diazatricyclo[13.3.1.1^2,6]icosa-1(19),2(20),3,5,15,17-hexaen-7-yl](methyl)amino]-2-oxoethyl}(3-{[(4′-propylbiphenyl-4-yl)carbonyl]amino}propanoyl)amino]butan-1-aminium trifluoroacetate] | 10 to 50 | H (H: SIC 0.062-1) | > 8 |  | 
